According to paper PMC6009956, “Design, synthesis and biological activity of N^4-phenylsubstituted-7H-pyrrolo[2,3-d]pyrimidin-4-amines as dual inhibitors of aurora kinase A and epidermal growth factor receptor kinase” (Journal of Enzyme Inhibition and Medicinal Chemistry, 2017):
Where two headings read alike, the source gives them in different places.

Assays:
aurora A kinase (AURKA) = target: T1, aurora A kinase (AURKA) (Homo sapiens, UniProt O14965); assay: ADP-Glo kinase assay, Aurora A; assay type: biochemical
T1 construct: purchased BPS Bioscience (assay run externally by the vendor)
T1 sequence (O14965 1-403): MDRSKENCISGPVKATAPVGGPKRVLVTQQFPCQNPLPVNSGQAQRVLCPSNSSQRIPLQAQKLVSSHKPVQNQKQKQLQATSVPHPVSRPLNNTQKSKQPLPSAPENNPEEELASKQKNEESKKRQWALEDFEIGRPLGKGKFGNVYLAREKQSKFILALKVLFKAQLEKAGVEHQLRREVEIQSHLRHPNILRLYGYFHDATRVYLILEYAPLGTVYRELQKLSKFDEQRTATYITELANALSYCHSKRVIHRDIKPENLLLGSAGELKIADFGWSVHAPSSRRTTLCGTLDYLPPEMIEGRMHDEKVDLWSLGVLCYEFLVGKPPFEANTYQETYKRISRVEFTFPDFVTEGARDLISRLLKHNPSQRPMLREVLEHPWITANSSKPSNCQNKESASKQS

EGFR = EGFR (Homo sapiens, UniProt P00533); assay: ADP-Glo kinase assay, EGFR; assay type: biochemical; design: purchased BPS Bioscience (assay run externally by the vendor)
EGFR, sequence (P00533 25-1210): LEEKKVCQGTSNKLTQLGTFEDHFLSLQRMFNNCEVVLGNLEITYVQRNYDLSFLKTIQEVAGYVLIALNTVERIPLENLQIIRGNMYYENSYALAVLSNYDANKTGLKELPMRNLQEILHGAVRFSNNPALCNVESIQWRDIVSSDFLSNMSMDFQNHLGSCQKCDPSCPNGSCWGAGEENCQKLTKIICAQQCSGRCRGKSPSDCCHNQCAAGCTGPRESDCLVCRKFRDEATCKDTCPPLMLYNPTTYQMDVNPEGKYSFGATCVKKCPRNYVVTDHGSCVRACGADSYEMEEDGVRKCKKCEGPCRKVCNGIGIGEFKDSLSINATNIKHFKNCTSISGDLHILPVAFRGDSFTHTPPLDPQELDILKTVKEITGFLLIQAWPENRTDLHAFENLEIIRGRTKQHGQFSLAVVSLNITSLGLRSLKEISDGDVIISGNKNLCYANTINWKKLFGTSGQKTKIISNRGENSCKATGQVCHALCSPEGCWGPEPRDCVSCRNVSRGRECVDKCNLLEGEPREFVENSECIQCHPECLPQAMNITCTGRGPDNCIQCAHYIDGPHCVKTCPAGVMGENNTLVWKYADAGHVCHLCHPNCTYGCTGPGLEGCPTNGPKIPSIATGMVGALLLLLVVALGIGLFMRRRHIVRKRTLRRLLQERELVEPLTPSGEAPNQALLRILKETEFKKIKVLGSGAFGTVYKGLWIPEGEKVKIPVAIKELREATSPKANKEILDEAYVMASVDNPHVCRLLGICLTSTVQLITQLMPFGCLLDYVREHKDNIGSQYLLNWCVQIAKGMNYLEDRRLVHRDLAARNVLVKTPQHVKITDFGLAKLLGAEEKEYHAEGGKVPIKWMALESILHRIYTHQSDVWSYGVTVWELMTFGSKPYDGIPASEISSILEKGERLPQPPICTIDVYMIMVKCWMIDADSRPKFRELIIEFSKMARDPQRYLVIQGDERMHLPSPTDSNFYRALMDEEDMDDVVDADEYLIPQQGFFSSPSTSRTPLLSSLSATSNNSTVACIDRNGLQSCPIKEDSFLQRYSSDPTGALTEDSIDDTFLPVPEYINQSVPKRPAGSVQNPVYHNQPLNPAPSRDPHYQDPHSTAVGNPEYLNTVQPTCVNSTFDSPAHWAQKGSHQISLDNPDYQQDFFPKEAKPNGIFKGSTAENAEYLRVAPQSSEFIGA

IC50 (aurora A kinase (AURKA); 10 µM ATP, triplicate, read-out: AURKA IC50 ± SD): 5.15 ± 0.37 µM | IC50 (aurora A kinase (AURKA); 10 µM ATP/0.2 mg/ml Kemptide, read-out: Aurora A IC50 (dose-response curve, supplement)): 5.2 µM | Aurora A % Activity Set1 (aurora A kinase (AURKA); Log[nM] 0): 98% | Aurora A % Activity Set2 (aurora A kinase (AURKA); Log[nM] 0): 101% | Aurora A % Activity Set3 (aurora A kinase (AURKA); Log[nM] 0): 97% | Aurora A % Activity Set1 (aurora A kinase (AURKA); Log[nM] 1.0): 99% | Aurora A % Activity Set2 (aurora A kinase (AURKA); Log[nM] 1.0): 98% | Aurora A % Activity Set3 (aurora A kinase (AURKA); Log[nM] 1.0): 100% | Aurora A % Activity Set1 (aurora A kinase (AURKA); Log[nM] 1.5): 104% | Aurora A % Activity Set2 (aurora A kinase (AURKA); Log[nM] 1.5): 108% | Aurora A % Activity Set3 (aurora A kinase (AURKA); Log[nM] 1.5): 102% | Aurora A % Activity Set1 (aurora A kinase (AURKA); Log[nM] 2.0): 105% | Aurora A % Activity Set2 (aurora A kinase (AURKA); Log[nM] 2.0): 107% | Aurora A % Activity Set3 (aurora A kinase (AURKA); Log[nM] 2.0): 104% | Aurora A % Activity Set1 (aurora A kinase (AURKA); Log[nM] 2.5): 103% | Aurora A % Activity Set2 (aurora A kinase (AURKA); Log[nM] 2.5): 99% | Aurora A % Activity Set3 (aurora A kinase (AURKA); Log[nM] 2.5): 101% | Aurora A % Activity Set1 (aurora A kinase (AURKA); Log[nM] 3.0): 88% | Aurora A % Activity Set2 (aurora A kinase (AURKA); Log[nM] 3.0): 93% | Aurora A % Activity Set3 (aurora A kinase (AURKA); Log[nM] 3.0): 86% | Aurora A % Activity Set1 (aurora A kinase (AURKA); Log[nM] 3.5): 66% | Aurora A % Activity Set2 (aurora A kinase (AURKA); Log[nM] 3.5): 69% | Aurora A % Activity Set3 (aurora A kinase (AURKA); Log[nM] 3.5): 68% | Aurora A % Activity Set1 (aurora A kinase (AURKA); Log[nM] 4.0): 25% | Aurora A % Activity Set2 (aurora A kinase (AURKA); Log[nM] 4.0): 28% | Aurora A % Activity Set3 (aurora A kinase (AURKA); Log[nM] 4.0): 25% | Aurora A % Activity Set1 (aurora A kinase (AURKA); Log[nM] 4.5): 11% | Aurora A % Activity Set2 (aurora A kinase (AURKA); Log[nM] 4.5): 11% | Aurora A % Activity Set3 (aurora A kinase (AURKA); Log[nM] 4.5): 11% | Aurora A % Activity Set1 (aurora A kinase (AURKA); Log[nM] 5.0): 9% | Aurora A % Activity Set2 (aurora A kinase (AURKA); Log[nM] 5.0): 10% | Aurora A % Activity Set3 (aurora A kinase (AURKA); Log[nM] 5.0): 9% | IC50 (EGFR; 10 µM ATP, triplicate, read-out: EGFR IC50 ± SD): 84.9 ± 15.9 nM | IC50 (EGFR; 10 µM ATP/0.2 mg/ml Poly-Glu-Tyr, read-out: EGFR IC50 (dose-response curve, supplement)): 84.5 nM | EGFR % Activity Set1 (EGFR; Log[nM] 0): 102% | EGFR % Activity Set2 (EGFR; Log[nM] 0): 96% | EGFR % Activity Set3 (EGFR; Log[nM] 0): 97% | EGFR % Activity Set1 (EGFR; Log[nM] 1.0): 102% | EGFR % Activity Set2 (EGFR; Log[nM] 1.0): 97% | EGFR % Activity Set3 (EGFR; Log[nM] 1.0): 96% | EGFR % Activity Set1 (EGFR; Log[nM] 1.5): 65% | EGFR % Activity Set2 (EGFR; Log[nM] 1.5): 61% | EGFR % Activity Set3 (EGFR; Log[nM] 1.5): 64% | EGFR % Activity Set1 (EGFR; Log[nM] 2.0): 50% | EGFR % Activity Set2 (EGFR; Log[nM] 2.0): 45% | EGFR % Activity Set3 (EGFR; Log[nM] 2.0): 52% | EGFR % Activity Set1 (EGFR; Log[nM] 2.5): 19% | EGFR % Activity Set2 (EGFR; Log[nM] 2.5): 19% | EGFR % Activity Set3 (EGFR; Log[nM] 2.5): 22% | EGFR % Activity Set1 (EGFR; Log[nM] 3.0): 10% | EGFR % Activity Set2 (EGFR; Log[nM] 3.0): 10% | EGFR % Activity Set3 (EGFR; Log[nM] 3.0): 12% | EGFR % Activity Set1 (EGFR; Log[nM] 3.5): 4% | EGFR % Activity Set2 (EGFR; Log[nM] 3.5): 4% | EGFR % Activity Set3 (EGFR; Log[nM] 3.5): 4% | EGFR % Activity Set1 (EGFR; Log[nM] 4.0): 2% | EGFR % Activity Set2 (EGFR; Log[nM] 4.0): 2% | EGFR % Activity Set3 (EGFR; Log[nM] 4.0): 2% | EGFR % Activity Set1 (EGFR; Log[nM] 4.5): 1% | EGFR % Activity Set2 (EGFR; Log[nM] 4.5): 1% | EGFR % Activity Set3 (EGFR; Log[nM] 4.5): 1% | EGFR % Activity Set1 (EGFR; Log[nM] 5.0): 1% | EGFR % Activity Set2 (EGFR; Log[nM] 5.0): 1% | EGFR % Activity Set3 (EGFR; Log[nM] 5.0): 1%
Compound: Clc1ccc(Nc2ncnc3[nH]ccc23)cc1 [Compound 4, N^4-(4-chlorophenyl)-7H-pyrrolo[2,3-d]pyrimidine-4-amine]
